Results published in the supplement of paper PMC10627819.

Assays:
S. aureus DSM 20231 [1] = experiment: fitness (endpoint OD595 vs no drug) (fraction); higher = more growth
In short: (§1)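 At 37 °C, bacteria in TSB, LB Lennox or CY were grown in 384-well plates from a starting OD595 of 0.01. OD595 was measured every 30 min for 14 h, with the first reading used as background. Fitness is the optical density at the switch to stationary phase as a fraction of the robust mean of no-drug control wells, capped at 1.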

S. aureus Newman [2] = experiment: as above
In short: as §1

S. pneumoniae D39V [3] = experiment: as above
In short: as §1

B. subtilis 168 = experiment: Bliss interaction score (quartile over a dose matrix) (fitness difference); higher = more antagonism (negative = synergy)
In short: (§2)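 Growth was read as OD595 when cultures entered stationary phase, and each value was divided by the plate's robust no-drug mean and capped at 1. This normalised ratio is the fitness value, and fitness for each single drug came from the combination data. The Bliss score subtracts the expected fitness, taken as the product, from the observed fitness and is given as quartiles across technical, biological and donor/recipient replicates.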

S. aureus DSM 20231 [4] = experiment: as above
In short: as §2

S. aureus Newman [5] = experiment: as above
In short: as §2

S. pneumoniae D39V [6] = experiment: as above
In short: as §2
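Wherever Bliss interaction score (quartile over a dose matrix) is given: first quartile when negative (synergy) and third quartile when positive (antagonism).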
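Wherever fitness (endpoint OD595 vs no drug) is given: OD595 on entry to stationary phase over no-drug wells; at most 1.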

CC1(C)S[C@@H]2[C@H](NC(=O)[C@H](N)c3ccc(O)cc3)C(=O)N2[C@H]1C(=O)O [Amoxicillin] + COc1cccc2c1C(=O)c1c(O)c3c(c(O)c1C2=O)C[C@@](O)(C(=O)CO)C[C@@H]3O[C@H]1C[C@H](N)[C@H](O)[C@H](C)O1 [Doxorubicin]
Conditions | fitness
S. aureus DSM 20231 [1], first compound 0.0625 µg/mL, partner 0.625 µg/mL | 0.541
S. aureus DSM 20231 [1], first compound 0.0625 µg/mL, partner 1.25 µg/mL | 0.511
S. aureus DSM 20231 [1], first compound 0.0625 µg/mL, partner 2.5 µg/mL | 0.493
S. aureus DSM 20231 [1], first compound 0.125 µg/mL, partner 0.625 µg/mL | 0.443
S. aureus DSM 20231 [1], first compound 0.125 µg/mL, partner 1.25 µg/mL | 0.423
S. aureus DSM 20231 [1], first compound 0.125 µg/mL, partner 2.5 µg/mL | 0.461
S. aureus DSM 20231 [1], first compound 0.25 µg/mL, partner 0.625 µg/mL | 0.187
S. aureus DSM 20231 [1], first compound 0.5 µg/mL, partner 0.625 µg/mL | 0.0064
S. aureus DSM 20231 [1], first compound 0.5 µg/mL, partner 1.25 µg/mL | 0
S. aureus DSM 20231 [1], first compound 0.5 µg/mL, partner 2.5 µg/mL | 0.012
S. aureus Newman [2], first compound 0.0625 µg/mL, partner 0.625 µg/mL | 0.756
S. aureus Newman [2], first compound 0.0625 µg/mL, partner 1.25 µg/mL | 0.738
S. aureus Newman [2], first compound 0.0625 µg/mL, partner 2.5 µg/mL | 0.686
S. aureus Newman [2], first compound 0.125 µg/mL, partner 0.625 µg/mL | 0.774
S. aureus Newman [2], first compound 0.125 µg/mL, partner 1.25 µg/mL | 0.742
S. aureus Newman [2], first compound 0.125 µg/mL, partner 2.5 µg/mL | 0.79
S. aureus Newman [2], first compound 0.25 µg/mL, partner 0.625 µg/mL | 0.729
S. aureus Newman [2], first compound 0.25 µg/mL, partner 1.25 µg/mL | 0.735
S. aureus Newman [2], first compound 0.25 µg/mL, partner 2.5 µg/mL | 0.712
S. pneumoniae D39V [3], first compound 0.0008 µg/mL, partner 0.25 µg/mL | 0.961
S. pneumoniae D39V [3], first compound 0.0008 µg/mL, partner 0.5 µg/mL | 0.941
S. pneumoniae D39V [3], first compound 0.0008 µg/mL, partner 1 µg/mL | 0.882
S. pneumoniae D39V [3], first compound 0.0015 µg/mL, partner 0.25 µg/mL | 0.892
S. pneumoniae D39V [3], first compound 0.0015 µg/mL, partner 0.5 µg/mL | 0.855
S. pneumoniae D39V [3], first compound 0.0015 µg/mL, partner 1 µg/mL | 0.921
S. pneumoniae D39V [3], first compound 0.003 µg/mL, partner 0.25 µg/mL | 0.838
S. pneumoniae D39V [3], first compound 0.003 µg/mL, partner 0.5 µg/mL | 0.837
S. pneumoniae D39V [3], first compound 0.003 µg/mL, partner 1 µg/mL | 0.788

S. pneumoniae D39V [3], first compound 0.006 µg/mL, one replicate
Conditions | fitness
partner 0.25 µg/mL | 0.317
partner 0.5 µg/mL | 0.314
partner 1 µg/mL | 0.399

Conditions | Bliss interaction score
B. subtilis 168 | 0.0583
S. aureus DSM 20231 [4] | 0.0943
S. aureus Newman [5] | -0.0449
S. pneumoniae D39V [6] | -0.071

CC1(C)S[C@@H]2[C@H](NC(=O)[C@H](N)c3ccc(O)cc3)C(=O)N2[C@H]1C(=O)O [Amoxicillin] + C[C@@H]1O[C@@H]1P(=O)(O)O [Fosfomycin]
Conditions | fitness
S. aureus DSM 20231 [1], first compound 0.0625 µg/mL, partner 0.781 µg/mL | 0.469
S. aureus DSM 20231 [1], first compound 0.0625 µg/mL, partner 1.562 µg/mL | 0.369
S. aureus DSM 20231 [1], first compound 0.0625 µg/mL, partner 3.124 µg/mL | 0.0511
S. aureus DSM 20231 [1], first compound 0.125 µg/mL, partner 0.781 µg/mL | 0.278
S. aureus DSM 20231 [1], first compound 0.125 µg/mL, partner 1.562 µg/mL | 0.0267
S. aureus DSM 20231 [1], first compound 0.125 µg/mL, partner 3.124 µg/mL | 0.0388
S. aureus DSM 20231 [1], first compound 0.25 µg/mL, partner 0.781 µg/mL | 0.0416
S. aureus DSM 20231 [1], first compound 0.25 µg/mL, partner 1.562 µg/mL | 0.0638
S. aureus DSM 20231 [1], first compound 0.25 µg/mL, partner 3.124 µg/mL | 0.038
S. aureus Newman [2], first compound 0.0625 µg/mL, partner 0.781 µg/mL | 0.612
S. aureus Newman [2], first compound 0.0625 µg/mL, partner 1.562 µg/mL | 0.506
S. aureus Newman [2], first compound 0.125 µg/mL, partner 0.781 µg/mL | 0.597
S. aureus Newman [2], first compound 0.125 µg/mL, partner 3.124 µg/mL | 0.185
S. aureus Newman [2], first compound 0.25 µg/mL, partner 0.781 µg/mL | 0.567
S. aureus Newman [2], first compound 0.25 µg/mL, partner 3.124 µg/mL | 0.096
S. pneumoniae D39V [3], first compound 0.0008 µg/mL, partner 1.25 µg/mL | 0.938
S. pneumoniae D39V [3], first compound 0.0008 µg/mL, partner 2.5 µg/mL | 0.893
S. pneumoniae D39V [3], first compound 0.0008 µg/mL, partner 5 µg/mL | 0.803
S. pneumoniae D39V [3], first compound 0.0015 µg/mL, partner 1.25 µg/mL | 0.914
S. pneumoniae D39V [3], first compound 0.0015 µg/mL, partner 2.5 µg/mL | 0.887
S. pneumoniae D39V [3], first compound 0.0015 µg/mL, partner 5 µg/mL | 0.672
S. pneumoniae D39V [3], first compound 0.003 µg/mL, partner 1.25 µg/mL | 0.877
S. pneumoniae D39V [3], first compound 0.003 µg/mL, partner 2.5 µg/mL | 0.834
S. pneumoniae D39V [3], first compound 0.003 µg/mL, partner 5 µg/mL | 0.531

fitness, one replicate
Conditions | partner 0.781 µg/mL | partner 1.25 µg/mL | partner 1.562 µg/mL | partner 2.5 µg/mL | partner 3.124 µg/mL | partner 5 µg/mL
S. aureus DSM 20231 [1], first compound 0.5 µg/mL | 0.0154 | – | 0.0129 | – | 0.0057 | –
S. pneumoniae D39V [3], first compound 0.006 µg/mL | – | 0.339 | – | 0.279 | – | 0.146

Conditions | Bliss interaction score
B. subtilis 168 | 0.102
S. aureus DSM 20231 [4] | -0.169
S. aureus Newman [5] | 0.0512
S. pneumoniae D39V [6] | -0.113
